Columns and labels:
NF-κB = NF-κB SeAP reporter assay of inducible MyD88/CD40 activity; assay type: cell-based
Protocol: 293T cells were transfected with 1 μg of reporter construct NF-κB SeAP and 4 μg of the iMC+CARζ construct pBP0774 or the MC-rap-CAR construct pBP1440 using the GeneJuice protocol (Novagen). […] After 24 hours of further incubation SeAP activity was determined from cell supernatants.
HEK 293T cells (1.5×10^5) were seeded on a 100-mm tissue culture dish in 10 mL DMEM4500, supplemented with glutamine, penicillin/streptomycin and 10% fetal calf serum. After 16-30 hours incubation, cells were transfected using Novagen's GeneJuice® protocol. Briefly, for each transfection, 0.5 mL OptiMEM was pipetted into a 1.5-mL microcentrifuge tube and 15 μL GeneJuice reagent added followed by 5 sec. vortexing. Samples were rested 5 minutes to settle the GeneJuice suspension. DNA (5 μg total) was added to each tube and mixed by pipetting up and down four times. Samples were allowed to rest for 5 minutes for GeneJuice-DNA complex formation and the suspension added dropwise to one dish of 293T cells. A typical transfection contains 1 μg NFkB-SEAP (5), 4 μg iMC+CARζ(pBP0774) or 4 μg MC-Rap-CAR (pBP1440) (1).
24 hours following transfection (4.1), 293T cells were split to 96-well plates and incubated with dilutions of dimerizing drugs. Briefly, 100 μL media was added to each well of a 96-well flat-bottom plate. Drugs were diluted in tubes to a concentration 4× the top concentration in the gradient to be place on the plate. […] 100 μL from each drug-containing well was then transferred to the adjacent well and the cycle repeated 10 times to produce a serial two-fold step gradient. The last wells were untreated and serve as a control for basal reporter activity. Transfected 293 cells were then trypsinized, washed with complete media, suspended in media and 100 μL aliquoted to each well containing drug (or no drug). Cells were incubated 24 hours.
24 hours after drug stimulation, 96-well plates were wrapped to prevent evaporation and incubated at 65° C. for 2 hours to inactivate endogenous and serum phosphatases while the heat-stable SeAP reporter remains (3, 12, 14). 100 μL samples from each well were loaded into individual wells of a 96-well assay plate with black sides. Samples were incubated with 0.5 mM 4-methylumbelliferyl phosphate (4-MUP) in 0.5 M diethanolamine at pH 10.0 for 4 to 16 hours. Phosphatase activity was measured by fluorescence with excitation at 355 nm and emission at 460 nm. Data was transferred to a Microsoft Excel spreadsheet for tabulation and graphed with GraphPad Prism.

[1] = tested on: transduced T cells (human PBMCs); assay: IL-6 ELISA as indicator of MC activity in transduced T cells; assay type: cell-based
transduced T cells = assay: T cell caspase assay (IncuCyte, caspase 3/7 green reagent); assay type: cell-based, human
Protocol: To enable detection of apoptosis using the IncuCyte instrument, 2 μM of IncuCyte™ Kinetic Caspase-3/7 Apoptosis reagent (Essen Bioscience, 4440) were add to each well to reach a total volume of 200 μl. The plates were centrifuged for 5 min at 400×g and placed inside the IncuCyte (Dual Color Model 4459) to monitor green fluorescence every 2-3 hours for a total of 48 hours at 10× objective. Image analysis was performed using the “Tcells_caspreagent_phase_green_10×_MLD” processing definition. The “Total Green Object Integrated Intensity” metric is used to quantify caspase activation. Each condition was performed in duplicates and each well was imaged at 4 different locations.
To enable detection of apoptosis using the IncuCyte instrument, 2 μM of IncuCyte™ Kinetic Caspase-3/7 Apoptosis reagent (Essen Bioscience, 4440) was added to each well to reach a total volume of 200 μl. The plates were centrifuged for 5 min at 400×g and placed inside the IncuCyte (Dual Color Model 4459) to monitor green fluorescence every 2-3 hours for a total of 48 hours at 10× objective. Image analysis was performed using the “Tcells_caspreagent_phase_green_10×_MLD” processing definition. The “Total Green Object Integrated Intensity” metric and the “Phase Object Confluence (Percent)” were used to quantify caspase activation. Each condition was performed in duplicate and each well was imaged at 4 different locations.

iRC9 = target: T1, iRC9 (Homo sapiens, UniProt P42345+P62942); assay: Incucyte/casp3/7 and SEAP assays in transfected 293 cells (FIG. 107); assay type: cell-based
T1 construct: expressed in transfected cells; host or cells: 293 cells
Protocol: FIG. 107. […] 293 cells were seeded at 300,000 cells/well in a 6-well plate and allowed to grow for 2 days. After 48 h, cells were transfected with 1 μg of experimental plasmids. Cells were harvested 48 h after transfection and diluted 2.5× their original volume.

[2] = tested on: HLA-A2+PRAME+ U2OS osteosarcoma; assay: iMC-PRAME TCR cytotoxicity and IL-2 secretion against U2OS; assay type: cell-based
Excerpt: The Go156 TCR is a negative control TCR.

[3] = tested on: luciferase-expressing U266 myeloma cells; assay: NSG mice engrafted with U266 myeloma cells, iMC-PRAME TCR T cells with rimiducid; assay type: in vivo, mouse
Protocol: FIG. 121: (A) NSG mice were engrafted with 1×10^6 luciferase-expressing U266 myeloma cells and treated with […] non-transduced, PRAME TCR- or iMC-PRAME TCR-transduced T cells on day 13. […] (B) Tumor growth was measured by bioluminescence imaging.

[4] = target: iRmC9 (pBP1327 & pBP1328) (Homo sapiens, UniProt P42345+P62942, F37V); assay: SRα-SEAP assay of drug specificity, iRmC9 switch, 293 cells; details: SRα-SEAP reporter
iCasp9-transduced MSCs = assay: Apoptosis studies in vitro in iCasp9-ΔCD19 transduced MSCs; assay type: cell-based, human
Protocol: Undifferentiated MSCs. The chemical inducer of dimerization (CID) (AP20187; ARIAD Pharmaceuticals, Cambridge, Mass.) was added at 50 nM to iCasp9-transduced MSCs cultures in complete medium. Apoptosis was evaluated 24 hours later by FACS analysis, after cell harvest and staining with annexin V-PE and 7-AAD in annexin V binding buffer (BD Biosciences, San Diego, Calif.). Control iCasp9-transduced MSCs were maintained in culture without exposure to CID.
Differentiated MSCs. Transduced MSCs were differentiated as presented above. At the end of the differentiation period, CID was added to the differentiation media at 50 nM. Cells were stained appropriately for the tissue being studied, as presented above, and a contrast stain (methylene azure or methylene blue) was used to evaluate the nuclear and cytoplasmic morphology. In parallel, tissues were processed for terminal deoxynucleotidyl-transferase dUTP nick end labeling (TUNEL) assay as per manufacturer instructions (In Situ Cell Death Detection Kit, Roche Diagnostics, Mannheim, Germany). For each time point, four random fields were photographed at a final magnification of 40× and the images were analyzed with ImageJ software version 1.430 (NIH, Bethesda, Md.). Cell density was calculated as the number of nuclei (DAPI positivity) per unit of surface area (in mm^2). The percentage of apoptotic cells was determined as the ratio of the number of nuclei with positive TUNEL signal (FITC positivity) to the total number of nuclei. Controls were maintained in culture without CID.

T1 sequence (P42345 2025-2113): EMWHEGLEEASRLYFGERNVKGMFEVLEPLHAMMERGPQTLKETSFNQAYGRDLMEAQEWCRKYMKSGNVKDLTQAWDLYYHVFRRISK
T1 sequence (P62942 2-107): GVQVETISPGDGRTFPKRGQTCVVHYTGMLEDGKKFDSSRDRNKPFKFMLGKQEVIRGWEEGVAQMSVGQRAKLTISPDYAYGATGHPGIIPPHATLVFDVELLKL
T1 sequence (P55211 135-416 partner limits assumed): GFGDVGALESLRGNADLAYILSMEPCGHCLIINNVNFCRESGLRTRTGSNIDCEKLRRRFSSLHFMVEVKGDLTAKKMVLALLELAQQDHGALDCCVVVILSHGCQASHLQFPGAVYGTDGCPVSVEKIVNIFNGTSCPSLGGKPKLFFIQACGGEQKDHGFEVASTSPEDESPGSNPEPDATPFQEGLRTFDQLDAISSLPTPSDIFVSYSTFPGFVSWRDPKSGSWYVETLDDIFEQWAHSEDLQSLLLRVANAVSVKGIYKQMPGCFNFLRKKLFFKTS
iRmC9 (pBP1327 & pBP1328), sequence (P42345 2025-2113): as the sequence (P42345 2025-2113) above
iRmC9 (pBP1327 & pBP1328), sequence (P62942 2-107 F37V): as the sequence (P62942 2-107) above, with F36V counted along it
iRmC9 (pBP1327 & pBP1328), sequence (P55211 135-416 partner limits assumed): as the sequence (P55211 135-416 partner limits assumed) above

Structure (SMILES) | EC50 (NF-κB; MC-rap-CAR construct pBP1440, read-out: EC50 / concentration stimulating NF-κB reporter activity via MC-Rap) [µM] | concentration inducing NF-κB reporter via iMC (NF-κB; iMC+CARζ construct BP774) | MC activity (secreted IL-6) in iMC+CARζ-T cells ([1]; 24 hours) | MC activity (secreted IL-6) in MC-rap-T cells ([1]; pBP1440, 24 hours) | dimerization/activation of FKBP.FRB.Δcasp9 (iRC9) (transduced T cells; 20 nM rimiducid) | concentration at which iC9 was observed to be activated (transduced T cells; MC-Rap + CAR + iC9 constructs) [µM] | rimiducid concentration required to activate iRC9 (iRC9) [nM] | iMC-PRAME TCR-mediated cytotoxicity against U2OS ([2]; FIG. 119A) | IL-2 secretion, PRAME TCR with rimiducid-driven iMC costimulation, U2OS ([2]; FIG. 119B) | number of Vβ1+CD8+ T cells in spleen ([3]; 5 mg/kg rimiducid i.p. weekly day 14 to 38, spleens day 94, FIG. 121C) | anti-tumor efficacy of TCR-modified T cells with rimiducid-driven iMC activation ([3]; summary, in vitro and in vivo) | activation of the iRmC9 switch [4] | apoptosis index of iCasp9-negative cells (iCasp9-transduced MSCs; CID 50 nM) [%] | apoptotic death of iCasp9-positive cells within 24 hrs (iCasp9-transduced MSCs; CID 50 nM) [%] | annexin positive, negative population (iCasp neg/CID) (iCasp9-transduced MSCs; CID 50 nM, 24 hours, FACS) [%] | annexin positive, non-transduced control MSC (Control/CID) (iCasp9-transduced MSCs; CID 50 nM, 24 hours, FACS) [%] | cell density after 24 hours (iCasp9-transduced MSCs; adipocytic differentiated iCasp9-positive cells, 50 nM CID, from 584) [cells/mm^2] | apoptotic cells among magnetically immunoselected iCasp9-CD19-positive cells (iCasp9-transduced MSCs; after exposure to CID)
CC[C@H](C(=O)N1CCCC[C@H]1C(=O)O[C@H](CCc1ccc(OC)c(OC)c1)c1cccc(OCC(=O)NCCNC(=O)COc2cccc([C@@H](CCc3ccc(OC)c(OC)c3)OC(=O)[C@@H]3CCCCN3C(=O)[C@@H](CC)c3cc(OC)c(OC)c(OC)c3)c2)c1)c1cc(OC)c(OC)c(OC)c1 [rimiducid] | > 0.05 | subnanomolar | stimulated strongly | not stimulated | unable to induce dimerization | < 100 | > 100 | rimiducid-independent | maximal IL-2 secretion | significantly increased | improved anti-tumor efficacy | can activate | – | – | – | – | – | –
CC[C@H](C(=O)N1CCCC[C@H]1C(=O)O[C@H](CCc1ccc(OC)c(OC)c1)c1cccc(OCC(=O)NCC(CNC(=O)COc2cccc([C@@H](CCc3ccc(OC)c(OC)c3)OC(=O)[C@@H]3CCCCN3C(=O)[C@@H](CC)c3cc(OC)c(OC)c(OC)c3)c2)CN(C)C)c1)c1cc(OC)c(OC)c(OC)c1 [AP20187] | – | – | – | – | – | – | – | – | – | – | – | – | 20±7 | 93±1 | 19 | 15 | < 14 | More than 95%
